Among the data in PubChem BioAssay (NCI) are TGI values, retold here.

Assay in all cases: NCI anticancer screen, dose series, 48 h
The test system of experiment [1] is SW-620 colon.
Experiment [2] has as its system BT-549 breast.
Experiment [3] concerns M14 melanoma.
The subject of experiment [4] is LOX IMVI melanoma.
Experiment [5] relates to NCI/ADR-RES ovarian.
For experiment [6], the system named is MDA-MB-435.
For experiment [7], the system named is RXF 393 renal.
The test system of experiment [8] is IGROV1 ovarian.
The subject of experiment [9] is SR leukemia.
Experiment [10] relates to NCI-H522 lung.
The subject of experiment [11] is HOP-62 NSCLC.
The subject of experiment [12] is MCF7 breast.
Experiment [13] concerns MALME-3M melanoma.
Experiment [14] has as its system HCT-116 colon.
Experiment [15] has as its system CAKI-1 renal.

The structures appear in SMILES notation. Where “and” joins values, the source holds several entries; their conditions need not be identical. Identical values can stand only once.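 Growth conditions: 96-well plates. Treatment: test compound, 48 hours, 5 concentrations. Analysis: linear interpolation between bracketing concentrations; unreached endpoints set to highest concentration. At the TGI there is no net growth.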 A value given as a limit tells only on which side of the number the result lay.

As to `COc1ccc(-c2c(C#N)c(N)n(C3OCC(OC(C)=O)C(OC(C)=O)C3OC(C)=O)c(=S)c2C#N)cc1` (stereo not drawn), the TGI in experiment [1] is more than 100 µM; in [2], 78.7 µM and 99 µM; in experiment [3], more than 100 µM; in [4] it was more than 100 µM; in experiment [5] it was more than 100 µM; in [6] it was 98.6 µM and > 100 µM. For the same molecule, the TGI is > 100 µM and 98.2 µM in [7]; more than 100 µM in [8]; 39.5 µM and 54.6 µM in [9]; more than 100 µM in experiment [10]; more than 100 µM in experiment [11]; more than 100 µM in experiment [12]. Moreover, the TGI in [13], in experiment [14] and in experiment [15] was more than 100 µM each time.
On to `C=CCNC(=O)NC(=O)CSC1=NNC2(C(=O)N1)c1ccccc1-c1ccccc12`, for which the TGI in experiment [1], in [2], in experiment [3], in [4], in experiment [5] and in experiment [6] was more than 10 µM each time. Also, the TGI in [7], in [8], in experiment [9], in experiment [10], in experiment [11] and in experiment [12] was more than 10 µM throughout. The TGI in experiment [13], in experiment [14] and in experiment [15] was more than 10 µM in each case.
`C=CCNC1=C2C[C@@H](C)C[C@@H](OC)[C@H](OC(=O)CCN)[C@H](C)/C=C(\C)[C@@H](OC(N)=O)[C@H](OC)/C=C\C=C(/C)C(=O)NC(=CC1=O)C2=O`: the TGI in [1] was more than 100 µM; in experiment [2] it was 21.2 µM; in experiment [3], 17.3 µM; in [4], 10.8 µM; in experiment [5], more than 100 µM; in experiment [6], 13.4 µM. The TGI was 15.1 µM in experiment [7]; 19.6 µM in experiment [8]; more than 100 µM in experiment [9]; 20.2 µM in experiment [10]; 17.5 µM in [11]; 7.71 µM in experiment [12]. Also, the TGI is 14.1 µM in [13], 13.6 µM in experiment [14] and 25.6 µM in [15].
Consider `O=C1c2cc(Cl)ccc2-n2cnnc2C2CSCN12` (stereo not drawn), for which the TGI in experiment [1], in experiment [2], in experiment [3], in experiment [4], in experiment [5] and in experiment [6] was more than 100 µM throughout. Also, the TGI in experiment [7], in experiment [8], in [9], in [10], in experiment [11] and in experiment [12] was more than 100 µM in each case. Besides, the TGI in experiment [13] was more than 100 µM; in [14], more than 100 µM; in experiment [15], 46 µM.
For the molecule `CCOc1cc(NC(C)=O)ccc1C(=O)NN1C(=O)C(Cl)C1c1ccccc1` (stereo not drawn), the TGI in experiment [1] turned out to be 59.6 µM; in experiment [2], 25.6 µM; in [3] it was 27 µM; in [4], 3.55 µM; in experiment [5], 88.5 µM; in experiment [6], 26 µM. The TGI in experiment [7] came out at 33.5 µM; in experiment [8], 18 µM; in experiment [9] it was 14.3 µM; in experiment [10], 5.82 µM; in experiment [11] it was 44.4 µM; in experiment [12], 22.9 µM. Also, the TGI in experiment [13] is 25.2 µM; in experiment [14], 38.9 µM; in experiment [15] it was 30.1 µM.
On to `CCc1c2c([nH]c(=S)c1C#N)CCC2`, for which the TGI in experiment [1], in experiment [2], in experiment [3], in [4], in experiment [5] and in [6] was more than 100 µM throughout. In addition, the TGI in experiment [7], in [8], in experiment [9], in experiment [10], in experiment [11] and in experiment [12] was more than 100 µM each time. Also, the TGI in experiment [13], in experiment [14] and in experiment [15] was more than 100 µM throughout.
`O=C(NC1=NCC(CN2CCN(c3ccccc3)CC2)O1)Nc1ccccc1` (stereo not drawn): the TGI in [1], in experiment [2], in experiment [3], in experiment [4], in experiment [5] and in [6] was more than 100 µM each time. Besides, the TGI in [7], in [8], in experiment [9], in experiment [10], in [11] and in experiment [12] was more than 100 µM each time. For the same molecule, the TGI in experiment [13], in experiment [14] and in experiment [15] was more than 100 µM throughout.
Take `O=C(Nc1ccc(Cl)cc1)NS(=O)(=O)c1coc2cc(F)ccc2c1=O`: the TGI in experiment [1], in [2], in [3], in experiment [4], in [5] and in [6] was more than 100 µM throughout. The TGI in [7], in experiment [8], in [9], in experiment [10], in experiment [11] and in experiment [12] was more than 100 µM each time. In addition, the TGI in experiment [13] and in experiment [15] was more than 100 µM each time.
Regarding `O=C1C(Cl)C2(CC(/C=C/c3ccccc3Cl)=NN2c2cccc(S(=O)(=O)O)c2)N1c1nc2ccccc2s1` (stereo not drawn), the TGI in experiment [1] is more than 100 µM; in experiment [2] it was more than 100 µM; in experiment [3], more than 100 µM; in experiment [4], 27.4 µM; in experiment [5], more than 100 µM; in experiment [6], 24.3 µM. For the same molecule, the TGI in [7] was more than 100 µM; in experiment [8], more than 100 µM; in experiment [9] it was 25.3 µM; in experiment [10], 26.9 µM; in experiment [12], more than 100 µM; in experiment [13], more than 100 µM. Besides, the values for the TGI in [14] and in experiment [15] were more than 100 µM and 38.6 µM, respectively.
